According to patent publication US11001590B2, “Pyrazolopyrimidine derivatives” (BAYER ANIMAL HEALTH GMBH, priority 2016, dated 2021):

Legend:
C. elegans Slo-1a = C. elegans Slo-1a (Caenorhabditis elegans, UniProt Q95V25); assay: In vitro assay 1: C. elegans Slo-1a, action at a recombinant C. elegans CHO cell line (membrane potential measurement); settings: for pE50: CHO cells expressing C. elegans Slo-1a, voltage sensitive dye, FLIPR Tetra, negative decadic logarithm of EC50
[1] = log P by HPLC on reversed phase columns (Method L0; [a] acidic, [b] neutral range); settings: for log P: HPLC on reversed phase columns (Method L0); for logP (Method L0) [a]: HPLC on reversed phase columns, Method L0, [a] acidic range
Description: Calibration was done with straight-chain alkan-2-ones (with 3 to 16 carbon atoms) with known log P values (measurement of log P values using retention times with linear interpolation between successive alkanones). Lambda-max-values were determined using UV-spectra from 200 nm to 400 nm and the peak values of the chromatographic signals.

[2] = last column of Table 1, column head not shown

C. elegans Slo-1a, sequence (Q95V25 whole entry): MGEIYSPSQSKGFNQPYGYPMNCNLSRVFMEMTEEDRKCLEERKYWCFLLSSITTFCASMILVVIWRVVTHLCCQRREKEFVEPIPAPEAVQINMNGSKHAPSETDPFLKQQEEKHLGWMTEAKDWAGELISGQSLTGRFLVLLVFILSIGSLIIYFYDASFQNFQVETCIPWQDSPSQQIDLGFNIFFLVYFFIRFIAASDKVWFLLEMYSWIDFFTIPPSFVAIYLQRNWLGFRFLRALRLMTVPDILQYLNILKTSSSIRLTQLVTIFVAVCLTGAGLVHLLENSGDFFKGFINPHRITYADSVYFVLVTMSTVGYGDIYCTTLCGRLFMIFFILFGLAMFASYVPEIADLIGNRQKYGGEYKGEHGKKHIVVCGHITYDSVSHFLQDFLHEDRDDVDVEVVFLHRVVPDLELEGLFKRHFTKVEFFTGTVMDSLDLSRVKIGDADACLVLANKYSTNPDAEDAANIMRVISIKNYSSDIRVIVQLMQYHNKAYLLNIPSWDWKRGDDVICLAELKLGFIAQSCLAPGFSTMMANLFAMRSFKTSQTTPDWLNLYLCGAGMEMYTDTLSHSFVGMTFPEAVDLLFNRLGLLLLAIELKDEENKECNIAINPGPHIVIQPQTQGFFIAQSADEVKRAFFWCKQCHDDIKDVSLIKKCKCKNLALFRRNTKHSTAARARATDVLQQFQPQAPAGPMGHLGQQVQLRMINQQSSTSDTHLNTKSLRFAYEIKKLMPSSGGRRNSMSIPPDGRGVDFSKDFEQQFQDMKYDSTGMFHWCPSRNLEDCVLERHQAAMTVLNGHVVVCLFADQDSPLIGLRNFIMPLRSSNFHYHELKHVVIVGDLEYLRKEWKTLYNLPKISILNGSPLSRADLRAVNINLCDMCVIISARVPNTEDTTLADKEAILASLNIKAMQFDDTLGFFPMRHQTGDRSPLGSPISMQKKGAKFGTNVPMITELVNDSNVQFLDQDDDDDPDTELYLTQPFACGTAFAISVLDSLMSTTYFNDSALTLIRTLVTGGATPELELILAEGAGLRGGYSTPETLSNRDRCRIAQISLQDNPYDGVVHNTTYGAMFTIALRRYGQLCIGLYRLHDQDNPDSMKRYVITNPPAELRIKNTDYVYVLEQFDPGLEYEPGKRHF

Row | SMILES | pE50 (C. elegans Slo-1a) | EC50 (C. elegans Slo-1a) [nM] | chromatographic logP [1] | further results
1 | Cc1nn2c(N(C)CC[S+](C)[O-])c(C(=O)NC3CCOc4ccccc43)cnc2c1-c1cc(Cl)cc(Cl)c1 (mixture of isomers) [Example 540] | 7.7 | – | – | log P [1, 2]: 2.88
2 | Cc1ccc2c(c1)C(NC(=O)c1cnc3c(-c4c(F)cccc4Cl)c(C)nn3c1C(C)C)CCO2 (racemic) [Example 237] | 7.5 | – | – | log P [1]: 4.67
3 | Cc1nn2c(C(C)C)c(C(=O)NC3CCOc4ccc(F)cc43)cnc2c1-c1c(F)cccc1Cl (racemic) [Example 254] | 8.1 | – | – | log P [1]: 4.45
4 | Cc1nn2c(C(C)C)c(C(=O)NC3CCc4ccccc43)cnc2c1-c1cccc(C(F)(F)F)c1 (stereo not drawn) [Example 1] | – | 39.8 | 5.29 | –
5 | Cc1nn2c(C(C)C)c(C(=O)NC3CCCc4ccccc43)cnc2c1-c1cccc(C(F)(F)F)c1 (stereo not drawn) [Example 2] | – | 31.6 | 5.59 | –
6 | Cc1ccc2c(c1)[C@@H](NC(=O)c1cnc3c(-c4cccc(C(F)(F)F)c4)c(C)nn3c1C(C)C)CCC2 [Example 5] | 7.2 | – | – | logP (Method L0) [a] [1]: 5.99
7 | Cc1nn2c(C(C)C)c(C(=O)N[C@H]3CCCc4ccccc43)cnc2c1-c1cc(Cl)cc(Cl)c1 [Example 7] | – | 20 | 6.39 | –
8 | Cc1nn2c(C)c(C(=O)N[C@H]3CCCc4ccccc43)cnc2c1-c1cccc(Cl)c1 [Example 46] | – | 251 | 4.42 | –
9 | CC(C)c1c(C(=O)N[C@H]2CCc3ccccc32)cnc2c(-c3cccc(Cl)c3)c(C(F)(F)F)nn12 [Example 48] | – | 251 | 5.46 | –
10 | CC(C)c1c(C(=O)N[C@H]2CCCc3ccccc32)cnc2c(-c3cccc(C(F)(F)F)c3)c(C(F)(F)F)nn12 [Example 56] | – | 398 | 5.8 | –
11 | Cc1nn2c(C)c(C(=O)N[C@H]3CCc4ccccc43)cnc2c1-c1cccc(Cl)c1 [Example 59] | – | 79.4 | 4.12 | –
12 | Cc1nn2c(C)c(C(=O)N[C@H]3CCc4ccccc43)cnc2c1-c1cc(Cl)cc(Cl)c1 [Example 60] | – | 7940 | 4.96 | –
13 | Cc1nn2c(C)c(C(=O)N[C@H]3CCCc4ccccc43)cnc2c1-c1cc(Cl)cc(Cl)c1 [Example 61] | – | 6310 | 5.29 | –
14 | Cc1nn2cc(C(=O)N[C@H]3CCc4ccccc43)cnc2c1-c1ccccc1Cl [Example 62] | – | 2000 | 3.52 | –
15 | CC(C)c1c(C(=O)N[C@H]2CCc3ccccc32)cnc2c(-c3cccc(C(F)(F)F)c3)c(Cl)nn12 [Example 70] | – | 31.6 | 5.55 | –
16 | CC(C)c1c(C(=O)N[C@H]2CCCc3ccccc32)cnc2c(-c3cccc(C(F)(F)F)c3)c(Cl)nn12 [Example 72] | – | 79.4 | 5.85 | –
17 | CC(C)c1c(C(=O)N[C@H]2CCc3ccccc32)cnc2c(-c3ccc(Cl)cc3)c(Cl)nn12 [Example 73] | – | 158 | 5.47 | –
18 | Cc1c(C(=O)N[C@H]2CCc3ccccc32)cnc2c(-c3ccccc3Cl)c(C(F)(F)F)nn12 [Example 81] | – | 398 | 4.24 | –
19 | CC(C)c1c(C(=O)N[C@H]2CCc3ccccc32)cnc2c(-c3ccccc3Cl)c(C(F)(F)F)nn12 [Example 88] | – | 79.4 | 4.96 | –

Row | SMILES | pE50 (C. elegans Slo-1a) | EC50 (C. elegans Slo-1a) [nM] | chromatographic logP [1] | further results
20 | CC(C)c1c(C(=O)N[C@H]2CCCc3ccccc32)cnc2c(-c3ccccc3Cl)c(C(F)(F)F)nn12 [Example 89] | – | 631 | 5.24 | –
21 | CC(C)c1c(C(=O)N[C@H]2CCc3ccccc32)cnc2c(-c3cccc(C(F)(F)F)c3)c(C(F)(F)F)nn12 [Example 91] | – | 63.1 | 5.51 | –
22 | Cc1nn2c(C(C)C)c(C(=O)N[C@H]3CCOc4ccc(Cl)cc43)cnc2c1-c1ccccc1F [Example 93] | 7 | – | – | logP (Method L0) [a] [1]: 4.67
23 | Cc1nn2c(C(C)C)c(C(=O)N[C@H]3CCOc4ccc(Cl)cc43)cnc2c1-c1c(F)cccc1F [Example 97] | 7.2 | – | – | logP (Method L0) [a] [1]: 4.61
24 | Cc1nn2c(C(C)C)c(C(=O)N[C@H]3CCOc4ccc(Cl)cc43)cnc2c1-c1ccc(F)c(F)c1 [Example 101] | 6.6 | – | – | logP (Method L0) [a] [1]: 5.03
25 | Cc1nn2c(C(C)C)c(C(=O)N[C@H]3CCOc4ccc(Cl)cc43)cnc2c1-c1ccccc1Cl [Example 104] | 7 | – | – | logP (Method L0) [a] [1]: 4.87
26 | Cc1nn2c(C(C)C)c(C(=O)N[C@H]3CCOc4ccc(Cl)cc43)cnc2c1-c1cccc(Cl)c1 [Example 105] | 6.8 | – | – | logP (Method L0) [a] [1]: 5.36
27 | Cc1ccc2c(c1)[C@@H](NC(=O)c1cnc3c(-c4c(F)cccc4F)c(C)nn3c1C(C)C)CCC2 [Example 108] | 7.3 | – | – | logP (Method L0) [a] [1]: 5.09
28 | Cc1ccc2c(c1)[C@@H](NC(=O)c1cnc3c(-c4ccccc4F)c(C)nn3c1C(C)C)CCC2 [Example 110] | 6.7 | – | – | logP (Method L0) [a] [1]: 5.16
29 | Cc1ccc2c(c1)[C@@H](NC(=O)c1cnc3c(-c4ccccc4Cl)c(C)nn3c1C(C)C)CCC2 [Example 111] | 7.2 | – | – | logP (Method L0) [a] [1]: 5.37
30 | Cc1nn2c(C(C)C)c(C(=O)N[C@H]3CCOc4ccc(Cl)cc43)cnc2c1-c1cc(F)ccc1F [Example 114] | 6.9 | – | – | logP (Method L0) [a] [1]: 4.82
31 | Cc1nn2c(C(C)C)c(C(=O)N[C@H]3CCCc4ccccc43)cnc2c1-c1ccc(Cl)c(C(=O)NC2CC2)c1 [Example 119] | 5.5 | – | – | logP (Method L0) [a] [1]: 4.07
32 | Cc1nn2c(C(C)C)c(C(=O)N[C@H]3CCc4ccccc43)cnc2c1-c1ccc2c(c1)OC(F)(F)O2 [Example 123] | – | 10 | 5.25 | –
33 | Cc1nn2c(C(C)C)c(C(=O)N[C@H]3CCCc4ccccc43)cnc2c1-c1cc(Cl)cc(C(F)(F)F)c1 [Example 124] | – | 7.94 | 6.36 | –
34 | Cc1nn2c(C(C)C)c(C(=O)N[C@H]3CCCc4ccccc43)cnc2c1-c1ccc(C(C)C)cc1 [Example 126] | – | 200 | 6.01 | –
35 | CC(C)c1c(C(=O)N[C@H]2CCc3ccccc32)cnc2c(-c3cc(Cl)cc(Cl)c3)c(C(F)(F)F)nn12 [Example 167] | – | 39.8 | 6.06 | –
36 | Cc1nn2c(C(C)C)c(C(=O)N[C@H]3CCOc4ccccc43)cnc2c1-c1ccc(C(F)(F)F)c(F)c1 [Example 187] | 7.9 | – | – | logP (Method L0) [a] [1]: 4.85
37 | Cc1nn2c(C(C)C)c(C(=O)N[C@H]3CCOc4ccccc43)cnc2c1-c1cccc(OC(F)(F)F)c1F [Example 215] | 9.1 | – | – | log P [1]: 5.02
38 | COc1c(Cl)ccc(-c2c(C)nn3c(C(C)C)c(C(=O)N[C@H]4CCOc5ccccc54)cnc23)c1F [Example 216] | 9.1 | – | – | log P [1]: 4.74

Row | SMILES | pE50 (C. elegans Slo-1a) | EC50 (C. elegans Slo-1a) [nM] | chromatographic logP [1] | further results
39 | Cc1nn2c(C(C)C)c(C(=O)N[C@H]3CCOc4ccccc43)cnc2c1-c1ccc(Cl)c(Cl)c1 [Example 230] | 8.1 | – | – | log P [1]: 5.48
40 | COc1ccc(F)c(-c2c(C)nn3c(C(C)C)c(C(=O)N[C@H]4CCOc5ccccc54)cnc23)c1Cl [Example 233] | 8.1 | – | – | log P [1]: 4.23
41 | COc1c(F)cc(F)c(-c2c(C)nn3c(C(C)C)c(C(=O)N[C@H]4CCOc5ccccc54)cnc23)c1F [Example 235] | 9.2 | – | – | log P [1]: 4.38
42 | Cc1nn2c(C(C)C)c(C(=O)N[C@H]3CCc4ccccc43)cnc2c1-c1cccc(C#N)c1 [Example 291] | – | 50.1 | 4.31 | –
43 | Cc1nn2c(C(C)C)c(C(=O)N[C@H]3CCc4ccccc43)cnc2c1-c1cc(F)cc(C(F)(F)F)c1 [Example 292] | – | 39.8 | 5.6 | –
44 | Cc1nn2c(C(C)C)c(C(=O)N[C@H]3CCc4ccccc43)cnc2c1-c1ccc(C#N)c(C(F)(F)F)c1 [Example 293] | – | 316 | 4.97 | –
45 | Cc1nn2c(C(C)C)c(C(=O)N[C@H]3CCc4ccccc43)cnc2c1-c1ccc(Cl)nc1 [Example 295] | – | 63.1 | 4.21 | –
46 | Cc1nn2c(C(C)C)c(C(=O)N[C@H]3CCc4ccccc43)cnc2c1-c1ccc(OCC(F)(F)F)cc1 [Examples 336] | – | – | – | log P [1]: 4.91
47 | COCc1cccc(-c2c(C)nn3c(C(F)(F)F)c(C(=O)N[C@H]4CCc5ccccc54)cnc23)c1 [Examples 371] | – | – | – | log P [1]: 4.32
48 | Cc1nn2c(C(F)(F)F)c(C(=O)N[C@H]3CCc4ccccc43)cnc2c1-c1cccc(Cl)c1 [Examples 382] | – | – | – | log P [1]: 4.97
49 | Cc1nn2c(C(F)(F)F)c(C(=O)N[C@H]3CCc4ccccc43)cnc2c1-c1cccc(OC(F)(F)F)c1 [Examples 383] | – | – | – | log P [1]: 5.21
50 | Cc1nn2c(C(F)(F)F)c(C(=O)N[C@H]3CCc4ccccc43)cnc2c1-c1cccc(C(F)(F)F)c1 [Examples 384] | – | – | – | log P [1]: 5.04
51 | Cc1nn2c(C(F)(F)F)c(C(=O)N[C@H]3CCc4ccccc43)cnc2c1-c1cccc(N(C)C)c1 [Examples 385] | – | – | – | log P [1]: 4.1
52 | COc1cccc(-c2c(C)nn3c(C(F)(F)F)c(C(=O)N[C@H]4CCc5ccccc54)cnc23)c1 [Examples 386] | – | – | – | log P [1]: 4.34
53 | Cc1nn2c(C(F)(F)F)c(C(=O)N[C@H]3CCc4ccccc43)cnc2c1-c1cccc(F)c1 [Examples 387] | – | – | – | log P [1]: 4.53
54 | Cc1nn2c(C(C)C)c(C(=O)N[C@H]3CCc4ccccc43)cnc2c1-c1cnn(CCN2CCOCC2)c1 [Examples 397] | – | – | – | log P [1, 2]: 1.81
55 | Cc1nn2c(C(C)C)c(C(=O)N[C@H]3CCc4ccccc43)cnc2c1-c1cnn(CCN(C)C)c1 [Examples 404] | – | – | – | log P [1, 2]: 1.75
56 | CC(C)c1c(C(=O)N[C@H]2CCc3ccccc32)cnc2c(-c3cccc(OC(F)(F)F)c3)c(C3CC3)nn12 [Examples 406] | – | – | – | log P [1, 2]: 6.11
57 | COCc1cccc(-c2c(C3CC3)nn3c(C(C)C)c(C(=O)N[C@H]4CCc5ccccc54)cnc23)c1 [Examples 409] | – | – | – | log P [1, 2]: 5.13
